Test results taken from patent US20100160351A1, “PHARMACEUTICAL COMPOSITIONS AND METHODS FOR TREATING HYPERURICEMIA AND RELATED DISORDERS” (NUON THERAPEUTICS, INC., priority 2008, published 2010).
Several values for one entry are separate records, joined by “and”; a condition that tells them apart may be missing. Equal values may be shown once.

What was measured:
[1] = tested on: monosodium urate (MSU) crystal-induced air pouch inflammation; assay: Air Pouch Model 2: MSU crystal air pouch, rodent model of gout; type: in vivo, male Sprague-Dawley rats; conditions: for Average Exudate Volume, Mean / Average Plasma Extravasation, OD620 nm, Mean / Total WBC in Sample, Mean / WBC in exudate, Mean: 4 h after MSU
Procedure: The objective of this study was to evaluate the anti-inflammatory potency of Tranilast. This evaluation was carried out in male Sprague-Dawley rats in a rodent model of gout. The animals were injected subcutaneously with 20 ml of sterile air, followed three days later by a supplemental injection with 20 ml of sterile air. Six days after the initial sterile air injection, the rats were injected intravenously with Evan's Blue and pretreated for thirty minutes with oral administration of 25 mg/kg, 50 mg/kg, 100 mg/kg or 200 mg/kg tranilast. After the pretreatment period, the rats were injected with 150 mg of monosodium urate (MSU) crystals (10 mg/ml) into the air pouch. Four hours later, the air pouch was injected with 5 ml heparinized saline and the entire contents of the air pouch removed, recording the total volume. The air pouch contents were evaluated for plasma extravasation and total white blood cell (WBC) count.
On day 0 the rats were anesthetized in a biological cabinet, the nape of the neck was cleansed with 70% isopropanol followed by iodine tincture (VEDCO, lot L021976). Twenty ml sterile (0.22 μm, Millipore, Cat. SLGSV255F, lot R8J1494130, exp July 2011) air was injected subcutaneously using a 23 G×2 inch needle fixed to a 20 ml syringe. The rats were returned to routine housing. No adverse reactions were observed.
On day 3 the rats were anesthetized in a biological cabinet, the nape of the neck was cleansed with 70% isopropanol followed by iodine tincture (VEDCO, lot L021976). Twenty ml sterile (0.22 μm, Fisher Scientific, Cat. 09-720-3, lot R5SN25683) air was injected subcutaneously using a 23 G×2 inch needle fixed to a 20 ml syringe. The rats were returned to routine housing. No adverse reactions were observed.
On day 6 the rats were weighed (Mettler, Model PE3000, SN: F69474) and injected intravenously injected with 2 ml/kg Evans Blue. The animals were dosed orally with 0.5 ml/kg, 1 ml/kg, 2; ml/kg or 4 ml/kg tranilast, or 4 ml/kg vehicle.
Thirty minutes after test material administration, the rats were anesthetized and five groups (2-6) were injected into the air pouch with 15 ml MSU using a 19 G×2 inch needle fitted to a 20 ml syringe. Group 1 was injected with 15 ml saline. The rats were returned to their cages, no adverse affects were observed.
Four hours after MSU/saline injection, the rats were anesthetized and 5 ml 10 U/ml heparinized saline was injected into the air pouch. The air pouch was gently massaged, the contents immediately removed using a 14 G×1 inch needle fitted to a 6 ml syringe, and the exudate volume recorded. An aliquot of the exudate was transferred to heparin-treated microtainer tubes (Becton Dickinson, Cat. 365958, lot 9140110, expo July 2010) for white blood cell (WBC) counting. The remainder of the exudate was centrifuged (Hermle Labrotechnik, Model Z200A, SN: 44060036), the supernatants removed and evaluated at OD620nm (Spectronic Unicam, Model 4000 1/4, SN: 3SGD003006) for plasma extravasation.

[2] = tested on: serum uric acid (sUA) levels; assay: Study A3006GT: phase 2 crossover, sUA in healthy subjects with screening sUA of at least 7.1 mg/dL; tranilast, febuxostat, combination; type: in vivo, human
Procedure: Study A3006GT was a phase 2, randomized, double-blind, 3-period, 3-treatment crossover trial. The primary objective was to compare the effects of three treatments on serum uric acid (sUA) levels in healthy subjects with a screening sUA level of at least 7.1 mg/dL. The three treatments were: 300 mg QD tranilast and 40 mg QD febuxostat (C); 300 mg QD tranilast alone (T); 40 mg QD febuxostat alone (F).
The study was conducted in 23 subjects. […] With two exceptions, every subject provided data for all three treatments. Subject 1001 completed only the first two periods of the study (C and F). […] Therefore, the period 3 data for subject 1024 are excluded from the analyses presented here.
Two endpoints were considered: change from baseline to day 7 in sUA; and percent change from baseline to day 7 in sUA. For each endpoint, an analysis of variance (ANOVA) model for a three-period crossover trial was used. The model included effects for sequence, subject within sequence, treatment, and period. The sequence effect was tested using the subject within sequence mean square as the error term. Two pairwise comparisons between treatments were tested: C−F and C−T. In addition, the two-sided 95% confidence interval for each of these differences was computed.
For each subject for which results were available from all three treatments, the difference between the change for C and the sum of the changes for F and T was computed. Although the true magnitude of the difference between these two values is not known, a conservative null hypothesis is that this difference should be equally likely to be greater than or less than zero. The sign test and the Wilcoxon signed rank test were used to test this null hypothesis.
Using the change for each subject as the dependent variable, an analysis of variance (ANOVA) model for a three-period crossover trial was fit. This model included effects for sequence, subject within sequence, treatment, and period. Using the least squares estimates of the mean changes for each treatment, along with the 3×3 covariance matrix of these three estimates, the mean and SD of the difference between C and F+T was estimated, as follows.

[3] = 25 mg/kg oral, 30 min before MSU
[4] = 50 mg/kg oral, 30 min before MSU
[5] = 100 mg/kg oral, 30 min before MSU
[6] = 200 mg/kg oral, 30 min before MSU
[7] = highest dose 200 mg/kg oral, 30 min before MSU
[8] = oral, sigmoidal dose-response (variable slope) analysis
[9] = end of 1-week treatment (day 7), C: 300 mg QD tranilast + 40 mg QD febuxostat, T: 300 mg QD, F: 40 mg QD
[10] = individual subjects, per study period, end of the 1-week treatment period

COc1ccc(/C=C/C(=O)Nc2ccccc2C(=O)O)cc1OC [Tranilast, 2-[[3-(3,4-dimethoxyphenyl)-1-oxo-2-propenyl]amino]benzoic acid]
Average Exudate Volume, Mean [1, 3]: 6.5 mL
Average Plasma Extravasation, OD620 nm, Mean [1, 3]: 1.431
Total WBC in Sample, Mean [1, 3]: 20550000
WBC in exudate, Mean [1, 3]: 3196000 cells/ml
Average Exudate Volume, Mean [1, 4]: 8.6 mL
Average Plasma Extravasation, OD620 nm, Mean [1, 4]: 1.048
Total WBC in Sample, Mean [1, 4]: 12476000
WBC in exudate, Mean [1, 4]: 1557000 cells/ml
Average Exudate Volume, Mean [1, 5]: 8.0 mL
Average Plasma Extravasation, OD620 nm, Mean [1, 5]: 0.939
Total WBC in Sample, Mean [1, 5]: 10629600
WBC in exudate, Mean [1, 5]: 1566000 cells/ml
Average Exudate Volume, Mean [1, 6]: 3.2 mL
Average Plasma Extravasation, OD620 nm, Mean [1, 6]: 0.819
Total WBC in Sample, Mean [1, 6]: 10305200
WBC in exudate, Mean [1, 6]: 3516000 cells/ml
inhibition of plasma extravasation [1, 7]: 42%
inhibition of white blood cell infiltration [1, 7]: 80%
effect on MSU-induced parameters (plasma extravasation, leukocyte infiltration) ([1]; oral 25-200 mg/kg, 30 min before MSU): dose-dependent inhibition
IC50 effect on plasma extravasation [1, 8]: 45 mg/kg
IC50 effect on white blood cell infiltration [1, 8]: 16 mg/kg
sUA Change from Baseline, Max [2, 9]: -0.90 mg/dL
sUA Change from Baseline, Mean [2, 9]: -1.60 mg/dL
sUA Change from Baseline, Median [2, 9]: -1.40 mg/dL
sUA Change from Baseline, Min [2, 9]: -3.50 mg/dL
sUA Percent Change from Baseline, Max [2, 9]: −9.47%
sUA Percent Change from Baseline, Mean [2, 9]: −21.20%
sUA Percent Change from Baseline, Median [2, 9]: −18.61%
sUA Percent Change from Baseline, Min [2, 9]: −47.95%
sUA Change from baseline [2, 10]: −1.4 mg/dL (2×) and −1.1 mg/dL (3×) and −2.1 mg/dL and −2.2 mg/dL (2×) and −1.7 mg/dL (3×) and −1.9 mg/dL and −0.9 mg/dL (2×) and −1.2 mg/dL (3×) and −1.0 mg/dL (2×) and −3.2 mg/dL and −3.5 mg/dL and −1.6 mg/dL
sUA Percent Change from baseline [2, 10]: −17.50% and −14.86% and −30.43% and −27.85% and −16.42% and −26.98% and −22.09% and −13.64% and −9.47% and −26.15% and −16.00% and −14.29% (2×) and −10.87% and −30.14% and −14.46% and −35.56% and −47.95% and −20.51% and −19.72% and −15.38% and −21.79%
